In the CheMixHub ionic liquid set:

Assay: xn = mol fraction of the nth substance listed
Conditions: 100 kPa

CCCCCCCC[n+]1ccccc1.[Br-] + CC(C)[C@H](N)C(=O)O + O
Conditions | electrical conductivity [S/m]
288.15 K, x2 = 0.0008935, x1 = 0.007418 | 1.31
288.15 K, x2 = 0.0008938, x1 = 0.007086 | 1.29
288.15 K, x2 = 0.0008942, x1 = 0.006704 | 1.26
288.15 K, x2 = 0.0008945, x1 = 0.006295 | 1.23
288.15 K, x2 = 0.0008949, x1 = 0.005851 | 1.19
288.15 K, x2 = 0.0008954, x1 = 0.005368 | 1.14
288.15 K, x2 = 0.0008958, x1 = 0.004839 | 1.08
288.15 K, x2 = 0.0008964, x1 = 0.004257 | 1.01
288.15 K, x2 = 0.0008969, x1 = 0.003625 | 0.906
288.15 K, x2 = 0.0008976, x1 = 0.002914 | 0.777
288.15 K, x2 = 0.0008982, x1 = 0.002179 | 0.624
288.15 K, x2 = 0.0008986, x1 = 0.001732 | 0.519
288.15 K, x2 = 0.0008991, x1 = 0.001237 | 0.396
288.15 K, x2 = 0.0008995, x1 = 0.0007528 | 0.27
288.15 K, x2 = 0.001786, x1 = 0.006884 | 1.26
288.15 K, x2 = 0.001787, x1 = 0.006555 | 1.23
288.15 K, x2 = 0.001788, x1 = 0.005847 | 1.16
288.15 K, x2 = 0.001788, x1 = 0.006214 | 1.19
288.15 K, x2 = 0.001789, x1 = 0.005457 | 1.12
288.15 K, x2 = 0.00179, x1 = 0.005019 | 1.08
288.15 K, x2 = 0.001791, x1 = 0.004547 | 1.02
288.15 K, x2 = 0.001792, x1 = 0.00402 | 0.951
288.15 K, x2 = 0.001793, x1 = 0.003446 | 0.852
288.15 K, x2 = 0.001794, x1 = 0.002816 | 0.736
288.15 K, x2 = 0.001795, x1 = 0.002155 | 0.601
288.15 K, x2 = 0.001796, x1 = 0.001258 | 0.39
288.15 K, x2 = 0.001796, x1 = 0.001677 | 0.494
288.15 K, x2 = 0.001797, x1 = 0.000791 | 0.274
293.15 K, x2 = 0.0008935, x1 = 0.007404 | 1.5
293.15 K, x2 = 0.0008938, x1 = 0.007072 | 1.47
293.15 K, x2 = 0.0008942, x1 = 0.00669 | 1.43
293.15 K, x2 = 0.0008945, x1 = 0.006282 | 1.39
293.15 K, x2 = 0.0008949, x1 = 0.005839 | 1.34
293.15 K, x2 = 0.0008954, x1 = 0.005359 | 1.29
293.15 K, x2 = 0.0008958, x1 = 0.00483 | 1.23
293.15 K, x2 = 0.0008964, x1 = 0.004248 | 1.15
293.15 K, x2 = 0.0008969, x1 = 0.003618 | 1.03
293.15 K, x2 = 0.0008976, x1 = 0.002909 | 0.878
293.15 K, x2 = 0.0008982, x1 = 0.002176 | 0.703
293.15 K, x2 = 0.0008986, x1 = 0.00173 | 0.585
293.15 K, x2 = 0.0008991, x1 = 0.001235 | 0.446
293.15 K, x2 = 0.0008995, x1 = 0.0007528 | 0.302
293.15 K, x2 = 0.001786, x1 = 0.006871 | 1.44
293.15 K, x2 = 0.001787, x1 = 0.006543 | 1.4
293.15 K, x2 = 0.001788, x1 = 0.005835 | 1.32
293.15 K, x2 = 0.001788, x1 = 0.006203 | 1.36
293.15 K, x2 = 0.001789, x1 = 0.005446 | 1.28
293.15 K, x2 = 0.00179, x1 = 0.00501 | 1.23
293.15 K, x2 = 0.001791, x1 = 0.004538 | 1.16
293.15 K, x2 = 0.001792, x1 = 0.004013 | 1.08
293.15 K, x2 = 0.001793, x1 = 0.003439 | 0.962
293.15 K, x2 = 0.001794, x1 = 0.002811 | 0.835
293.15 K, x2 = 0.001795, x1 = 0.002152 | 0.681
293.15 K, x2 = 0.001796, x1 = 0.001254 | 0.441
293.15 K, x2 = 0.001796, x1 = 0.001673 | 0.556
293.15 K, x2 = 0.001797, x1 = 0.0007892 | 0.308
298.15 K, x2 = 0.0008935, x1 = 0.007393 | 1.7
298.15 K, x2 = 0.0008938, x1 = 0.007063 | 1.66
298.15 K, x2 = 0.0008942, x1 = 0.006681 | 1.62
298.15 K, x2 = 0.0008945, x1 = 0.006273 | 1.57
298.15 K, x2 = 0.0008949, x1 = 0.005831 | 1.52
298.15 K, x2 = 0.0008954, x1 = 0.005351 | 1.46
298.15 K, x2 = 0.0008959, x1 = 0.004824 | 1.38
298.15 K, x2 = 0.0008964, x1 = 0.004243 | 1.28
298.15 K, x2 = 0.0008969, x1 = 0.003614 | 1.15
298.15 K, x2 = 0.0008976, x1 = 0.002905 | 0.986
298.15 K, x2 = 0.0008982, x1 = 0.002174 | 0.784
298.15 K, x2 = 0.0008986, x1 = 0.001726 | 0.653
298.15 K, x2 = 0.0008991, x1 = 0.001234 | 0.498
298.15 K, x2 = 0.0008995, x1 = 0.000751 | 0.336
298.15 K, x2 = 0.001786, x1 = 0.006862 | 1.62
298.15 K, x2 = 0.001787, x1 = 0.006534 | 1.58
298.15 K, x2 = 0.001788, x1 = 0.005828 | 1.49
298.15 K, x2 = 0.001788, x1 = 0.006196 | 1.54
298.15 K, x2 = 0.001789, x1 = 0.005439 | 1.44
298.15 K, x2 = 0.00179, x1 = 0.005003 | 1.38
298.15 K, x2 = 0.001791, x1 = 0.004533 | 1.31
298.15 K, x2 = 0.001792, x1 = 0.004009 | 1.21
298.15 K, x2 = 0.001793, x1 = 0.003435 | 1.08
298.15 K, x2 = 0.001794, x1 = 0.002807 | 0.937
298.15 K, x2 = 0.001795, x1 = 0.002148 | 0.761
298.15 K, x2 = 0.001796, x1 = 0.001254 | 0.492
298.15 K, x2 = 0.001796, x1 = 0.001671 | 0.623
298.15 K, x2 = 0.001797, x1 = 0.0007892 | 0.342
303.15 K, x2 = 0.0008935, x1 = 0.007383 | 1.93
303.15 K, x2 = 0.0008938, x1 = 0.007052 | 1.88
303.15 K, x2 = 0.0008942, x1 = 0.006672 | 1.82
303.15 K, x2 = 0.0008946, x1 = 0.006264 | 1.77
303.15 K, x2 = 0.000895, x1 = 0.005822 | 1.7
303.15 K, x2 = 0.0008954, x1 = 0.005343 | 1.63
303.15 K, x2 = 0.0008959, x1 = 0.004817 | 1.54
303.15 K, x2 = 0.0008964, x1 = 0.004238 | 1.43
303.15 K, x2 = 0.0008969, x1 = 0.003609 | 1.28
303.15 K, x2 = 0.0008976, x1 = 0.002902 | 1.1
303.15 K, x2 = 0.0008982, x1 = 0.00217 | 0.864
303.15 K, x2 = 0.0008986, x1 = 0.001725 | 0.717
303.15 K, x2 = 0.0008991, x1 = 0.001232 | 0.553
303.15 K, x2 = 0.0008995, x1 = 0.000751 | 0.372
303.15 K, x2 = 0.001786, x1 = 0.006852 | 1.81
303.15 K, x2 = 0.001787, x1 = 0.006525 | 1.77
303.15 K, x2 = 0.001788, x1 = 0.00582 | 1.67
303.15 K, x2 = 0.001788, x1 = 0.006185 | 1.72
303.15 K, x2 = 0.001789, x1 = 0.005432 | 1.61
303.15 K, x2 = 0.00179, x1 = 0.004996 | 1.54
303.15 K, x2 = 0.001791, x1 = 0.004527 | 1.46
303.15 K, x2 = 0.001792, x1 = 0.004004 | 1.35
303.15 K, x2 = 0.001793, x1 = 0.003429 | 1.21
303.15 K, x2 = 0.001794, x1 = 0.002804 | 1.04
303.15 K, x2 = 0.001795, x1 = 0.002146 | 0.845
303.15 K, x2 = 0.001796, x1 = 0.00167 | 0.691
303.15 K, x2 = 0.001797, x1 = 0.0007874 | 0.379
303.15 K, x2 = 0.001797, x1 = 0.001252 | 0.546
308.15 K, x2 = 0.0008936, x1 = 0.00737 | 2.19
308.15 K, x2 = 0.0008938, x1 = 0.00704 | 2.13
308.15 K, x2 = 0.0008942, x1 = 0.006659 | 2.06
308.15 K, x2 = 0.0008946, x1 = 0.006254 | 1.99
308.15 K, x2 = 0.000895, x1 = 0.005812 | 1.92
308.15 K, x2 = 0.0008954, x1 = 0.005334 | 1.81
308.15 K, x2 = 0.0008959, x1 = 0.004808 | 1.71
308.15 K, x2 = 0.0008964, x1 = 0.00423 | 1.57
308.15 K, x2 = 0.0008969, x1 = 0.003602 | 1.42
308.15 K, x2 = 0.0008976, x1 = 0.002896 | 1.19
308.15 K, x2 = 0.0008982, x1 = 0.002167 | 0.943
308.15 K, x2 = 0.0008986, x1 = 0.001721 | 0.784
308.15 K, x2 = 0.0008991, x1 = 0.00123 | 0.608
308.15 K, x2 = 0.0008995, x1 = 0.0007492 | 0.414
308.15 K, x2 = 0.001786, x1 = 0.006839 | 2.07
308.15 K, x2 = 0.001787, x1 = 0.006512 | 2.02
308.15 K, x2 = 0.001788, x1 = 0.00581 | 1.87
308.15 K, x2 = 0.001788, x1 = 0.006175 | 1.95
308.15 K, x2 = 0.001789, x1 = 0.005421 | 1.79
308.15 K, x2 = 0.00179, x1 = 0.004987 | 1.71
308.15 K, x2 = 0.001791, x1 = 0.004518 | 1.62
308.15 K, x2 = 0.001792, x1 = 0.003997 | 1.48
308.15 K, x2 = 0.001793, x1 = 0.003424 | 1.34
308.15 K, x2 = 0.001794, x1 = 0.002798 | 1.14
308.15 K, x2 = 0.001795, x1 = 0.002143 | 0.914
308.15 K, x2 = 0.001796, x1 = 0.001666 | 0.743
308.15 K, x2 = 0.001797, x1 = 0.0007874 | 0.427
308.15 K, x2 = 0.001797, x1 = 0.001249 | 0.603
